Some test systems named below: M14 melanoma; UO-31 renal; SF-268 CNS; A498 renal; IGROV1 ovarian; EKVX NSCLC; SF-539 CNS; U251 CNS; SW-620 colon; NCI-H460 lung.
Common to all, as to experiment: NCI anticancer screen, dose series, 48 h

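Exposure lasted 48 hours, with cells grown in 96-well plates and compounds tested at five concentrations. Abbreviation: GI50, concentration required for 50% inhibition of growth. TGI: total growth inhibition.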

As for `Cc1ccc(Cl)c(NC(=O)C(=O)C(C(=O)c2ccncc2)C2OC(=O)c3ccccc32)c1` (stereo not given), the TGI with M14 melanoma, with UO-31 renal, in the assay with SF-268 CNS, with A498 renal, with IGROV1 ovarian and with EKVX NSCLC was more than 100 µM each time. The TGI in the assay on SF-539 CNS, with U251 CNS, in the assay on SW-620 colon and with NCI-H460 lung was more than 100 µM throughout.

As for `O=C(COc1ccccc1)NS(=O)(=O)c1ccccc1`, the TGI in the assay with M14 melanoma, in the assay on UO-31 renal, in the assay on SF-268 CNS, in the assay with A498 renal, with IGROV1 ovarian and with EKVX NSCLC was more than 100 µM each time. The TGI in the assay with SF-539 CNS, in the assay with U251 CNS, with SW-620 colon and with NCI-H460 lung was more than 100 µM in each case.

On to `COc1ccc(NC(=O)c2sc3nc(C)c(C(O)c4ccccc4)cc3c2N)cc1` (stereo not given), for which the GI50 with M14 melanoma was 2.52 µM; in the assay on UO-31 renal it was 2.62 µM; with SF-268 CNS it was 4.06 µM; in the assay on A498 renal, 0.212 µM; with IGROV1 ovarian, 3.63 µM; in the assay with EKVX NSCLC it was 4.38 µM. In addition, the GI50 in the assay on SF-539 CNS is 2.24 µM; with U251 CNS it was 3.58 µM; in the assay on SW-620 colon, 2.64 µM; in the assay on NCI-H460 lung, 0.357 µM. In addition, the TGI was 38.3 µM in the assay with M14 melanoma; more than 100 µM in the assay on UO-31 renal; more than 100 µM in the assay with SF-268 CNS; 0.704 µM in the assay with A498 renal; more than 100 µM in the assay with IGROV1 ovarian; more than 100 µM with EKVX NSCLC. Further, the TGI in the assay with SF-539 CNS is 6.65 µM; in the assay with U251 CNS, more than 100 µM; with SW-620 colon it was 28.1 µM; with NCI-H460 lung, 1.65 µM.

As to `Cc1cc(Cl)cc2c1NC(=O)C2(O)C(C)C(=O)c1ccc(Cl)cc1` (stereo not given), the TGI is more than 100 µM in the assay on M14 melanoma; more than 100 µM in the assay on UO-31 renal; more than 100 µM in the assay on SF-268 CNS; more than 91.6 µM with A498 renal; more than 100 µM with IGROV1 ovarian; more than 100 µM in the assay with EKVX NSCLC. For the same molecule, the TGI with SF-539 CNS, in the assay with U251 CNS, with SW-620 colon and in the assay with NCI-H460 lung was more than 100 µM in each case.

As to `N#Cc1ccnc(N2C(=O)CC[C@H]2C(=O)N(c2cncc(F)c2)[C@H](C(=O)NC2CC(F)(F)C2)c2ccccc2Cl)c1`, the GI50 with M14 melanoma was 49.1 µM; with UO-31 renal it was 18.3 µM; in the assay with SF-268 CNS it was 56.2 µM; with A498 renal, 81.7 µM; with IGROV1 ovarian, 44.5 µM; in the assay on EKVX NSCLC it was 99.2 µM. Moreover, the GI50 in the assay on SF-539 CNS was more than 100 µM; with U251 CNS, more than 100 µM; in the assay with SW-620 colon, more than 100 µM; with NCI-H460 lung, 73.3 µM. Moreover, the TGI in the assay with M14 melanoma, in the assay on UO-31 renal, with SF-268 CNS, with A498 renal, in the assay with IGROV1 ovarian and in the assay on EKVX NSCLC was more than 100 µM throughout. Besides, the TGI with SF-539 CNS, in the assay with U251 CNS, in the assay on SW-620 colon and in the assay with NCI-H460 lung was more than 100 µM in each case.

`COc1ccc(-c2ccc(C3CC(c4ccc(Cl)cc4)=NN3)o2)c([N+](=O)[O-])c1` (stereo not given): the GI50 with M14 melanoma, in the assay on UO-31 renal, in the assay with SF-268 CNS, in the assay with A498 renal, in the assay with IGROV1 ovarian and in the assay with EKVX NSCLC was more than 100 µM in each case. Besides, the GI50 in the assay with SF-539 CNS, in the assay on U251 CNS, with SW-620 colon and in the assay on NCI-H460 lung was more than 100 µM in each case. Moreover, the TGI in the assay on M14 melanoma, in the assay on UO-31 renal, in the assay with SF-268 CNS, with A498 renal, in the assay with IGROV1 ovarian and with EKVX NSCLC was more than 100 µM each time. Further, the TGI in the assay on SF-539 CNS, with U251 CNS, in the assay on SW-620 colon and in the assay on NCI-H460 lung was more than 100 µM throughout.

For `Cc1ccccc1CN1CC=c2ccccc2=N1`, the TGI with M14 melanoma, with UO-31 renal, in the assay with SF-268 CNS, with A498 renal, with IGROV1 ovarian and in the assay on EKVX NSCLC was more than 100 µM in each case. Besides, the TGI in the assay with SF-539 CNS, in the assay on U251 CNS, in the assay on SW-620 colon and in the assay with NCI-H460 lung was more than 100 µM throughout.

As for `CS(=O)(=O)Nc1ccc(Nc2c3ccccc3nc3ccccc23)cc1`, the TGI in the assay with M14 melanoma worked out at 17.5 µM; with UO-31 renal it was 12.5 µM; in the assay on SF-268 CNS, 24.5 µM; in the assay with A498 renal, 16.3 µM; in the assay with IGROV1 ovarian it was 18.9 µM; in the assay with EKVX NSCLC, 29.6 µM. The TGI in the assay on SF-539 CNS amounted to 20.2 µM; in the assay on U251 CNS, 13.8 µM; in the assay on SW-620 colon, 19.9 µM; with NCI-H460 lung, 6.95 µM.

These data come from PubChem BioAssay (NCI).
